Source: patent US20080287477A1, “Novel Compounds as Modulators of Ppar” (KALYPSYS, INC., priority 2006, published 2008)

How the values were obtained:
Format in all cases: cell-based, murine and human
Conditions in all cases: 20-24 hours treatment
[1] = target: T1, PPAR-alpha (UniProt Q07869); assay: Transient transfection transactivation assay in CV-1 cells, GAL4-PPAR-alpha chimera, luciferase reporter
T1 sequence (Q07869 1-468): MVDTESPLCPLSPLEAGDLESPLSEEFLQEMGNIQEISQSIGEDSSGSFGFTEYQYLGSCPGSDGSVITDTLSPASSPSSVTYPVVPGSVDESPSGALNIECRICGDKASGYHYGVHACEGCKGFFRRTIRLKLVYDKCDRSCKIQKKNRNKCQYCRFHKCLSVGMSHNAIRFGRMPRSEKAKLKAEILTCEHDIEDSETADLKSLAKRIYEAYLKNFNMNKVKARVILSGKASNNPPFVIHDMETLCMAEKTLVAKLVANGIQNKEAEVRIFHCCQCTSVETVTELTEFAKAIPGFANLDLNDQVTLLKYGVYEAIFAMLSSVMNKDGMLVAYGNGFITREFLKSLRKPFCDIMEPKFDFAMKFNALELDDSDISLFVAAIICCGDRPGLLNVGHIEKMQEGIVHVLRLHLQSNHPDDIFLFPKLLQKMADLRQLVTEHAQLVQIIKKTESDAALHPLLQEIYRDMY
Text: (§1) Compounds may be screened for functional potency in transient transfection assays in CV-1 cells for their ability to activate the PPAR subtypes (transactivation assay). A previously established chimeric receptor system was utilized to allow comparison of the relative transcriptional activity of the receptor subtypes on the same synthetic response element and to prevent endogenous receptor activation from complicating the interpretation of results. See, for example, Lehmann, J. M.; Moore, L. B.; Smith-Oliver, T. A: Wilkinson, W. O.; Willson, T. M.; Kliewer, S. A., An antidiabetic thiazolidinedione is a high affinity ligand for peroxisome proliferator-activated receptor […], J. Biol. Chem., 1995, 270, 12953-6. The ligand binding domains for murine and human PPAR-alpha, PPAR-gamma, and PPAR-delta are each fused to the yeast transcription factor GAL4 DNA binding domain. CV-1 cells were transiently transfected with expression vectors for the respective PPAR chimera along with a reporter construct containing four or five copies of the GAL4 DNA binding site driving expression of luciferase. After 8-16 h, the cells are replated into multi-well assay plates and the media is exchanged to phenol-red free DME medium supplemented with 5% delipidated coif serum. 4 hours after replating, cells were treated with either compounds or 1% DMSO for 20-24 hours. Luciferase activity was then assayed with Britelite (Perkin Elmer) following the manufacturer's protocol and measured with either the Perkin Elmer Viewlux or Molecular Devices Acquost (see, for example. Kliewer, S. A., et. al. Cell 1995, 83, 813-819). Rosiglitazone is used as a positive control in the PPARγ assay. Wy-14643 and GW7647 is used as a positive control in the […]. GW50156 is used as the positive control in the PPARδ assay.
Examples 1-20 were assayed to measure their biological activity with respect to their efficacy for modulating PPAR-alpha, PPAR-gamma, and PPAR-delta. EC50 values are set forth below in Table 1.

[2] = target: T2, PPAR-gamma (UniProt P37231); assay: Transient transfection transactivation assay in CV-1 cells, GAL4-PPAR-gamma chimera, luciferase reporter
T2 sequence (P37231 1-505): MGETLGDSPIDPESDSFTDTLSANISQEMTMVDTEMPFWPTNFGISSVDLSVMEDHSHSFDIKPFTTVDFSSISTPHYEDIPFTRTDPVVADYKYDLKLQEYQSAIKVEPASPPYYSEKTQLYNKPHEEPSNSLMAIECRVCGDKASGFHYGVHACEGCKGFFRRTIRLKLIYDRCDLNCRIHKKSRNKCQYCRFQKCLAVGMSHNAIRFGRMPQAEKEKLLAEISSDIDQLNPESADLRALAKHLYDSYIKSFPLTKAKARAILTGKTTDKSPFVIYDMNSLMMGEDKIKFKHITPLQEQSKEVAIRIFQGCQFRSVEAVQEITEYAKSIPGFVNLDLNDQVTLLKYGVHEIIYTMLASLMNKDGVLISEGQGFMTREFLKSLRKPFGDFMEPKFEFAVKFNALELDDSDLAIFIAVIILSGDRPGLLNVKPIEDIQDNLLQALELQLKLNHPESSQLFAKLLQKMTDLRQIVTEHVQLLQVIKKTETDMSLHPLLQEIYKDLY
Text: as §1
(§2) EC50 values are set forth below in Table 1.

[3] = target: T3, PPAR-delta (UniProt Q03181); assay: Transient transfection transactivation assay in CV-1 cells, GAL4-PPAR-delta chimera, luciferase reporter
T3 sequence (Q03181 1-441): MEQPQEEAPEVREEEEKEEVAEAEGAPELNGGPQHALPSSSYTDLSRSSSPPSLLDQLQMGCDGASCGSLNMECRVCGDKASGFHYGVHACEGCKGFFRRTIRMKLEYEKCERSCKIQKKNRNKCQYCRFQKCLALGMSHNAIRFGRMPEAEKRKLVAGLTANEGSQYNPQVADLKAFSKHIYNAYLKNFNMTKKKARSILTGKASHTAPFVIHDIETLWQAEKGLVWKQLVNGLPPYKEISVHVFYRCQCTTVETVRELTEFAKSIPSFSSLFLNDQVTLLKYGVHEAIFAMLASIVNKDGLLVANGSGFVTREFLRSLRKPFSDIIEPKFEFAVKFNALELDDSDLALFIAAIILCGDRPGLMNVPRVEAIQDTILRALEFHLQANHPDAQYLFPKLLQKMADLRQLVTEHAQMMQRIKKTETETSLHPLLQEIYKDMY
Text: as §1, §2

In the case of `CCCc1c(OCCN(C)S(=O)(=O)c2ccc3c(c2)CC(C(=O)O)C3)ccc(C(C)=O)c1O` (stereo not drawn) [Example 13], the EC50 [1] is reported as over 100 µM, the EC50 [2] is reported as 5 to 100 µM and the EC50 [3] is reported as over 100 µM.

In the case of `CCCc1c(OCCN(C)S(=O)(=O)c2ccc3c(c2)C(C(=O)O)CC3)ccc(C(C)=O)c1O` (stereo not drawn) [Example 10, 6-(N-(2-(4-Acetyl-3-hydroxy-2-propylphenoxy)ethyl)-N-methylsulfamoyl)-2-dihydro-1H-indene-1-carboxylic acid], the EC50 [1] is reported as under 5 µM, the EC50 [2] is reported as under 5 µM and the EC50 [3] is reported as under 5 µM.

`CCCc1c(OCCN(C)S(=O)(=O)c2cccc3c2CC(C(=O)O)C3)ccc(C(C)=O)c1O` (stereo not drawn) [Example 9, 4-(N-(2-(4-Acetyl-3-hydroxy-2-propylphenoxy)ethyl)-N-methylsulfamoyl)-2,3-dihydro-1H-indene-2-carboxylic acid] showed an EC50 [1] of over 100 µM, an EC50 [2] of under 5 µM and an EC50 [3] of under 5 µM.

`CCc1cnc(N(CCNS(=O)(=O)c2cc(C)cc(CC(=O)O)c2)Cc2ccc(OC(F)(F)F)cc2)nc1` [Example 2, (3-{2-[(Ethyl-pyrimidin-2-yl)-(4-trifluoromethoxy-benzyl)-amino]-ethylsulfamoyl)-5-methyl-phenyl)-acetic acid] was tested, and the EC50 [1] was under 5 µM, the EC50 [2] was under 5 µM and the EC50 [3] was under 5 µM.

With `CCc1cnc(N(CCNS(=O)(=O)c2cccc3c2CC(C(=O)O)C3)Cc2ccc(OC(F)(F)F)cc2)nc1` (stereo not drawn) [Example 1, 4-{2-[(5-Ethyl-pyrimidin-2-yl)-(4-trifluoromethoxy-benzyl}-amino]-ethylsulfamoyl)-indan-2-carboxylic acid] the EC50 [1] was under 5 µM, the EC50 [2] was under 5 µM and the EC50 [3] was under 5 µM.

`CCCc1c(OCCNS(=O)(=O)c2ccc3c(c2)CC(C(=O)O)C3)ccc(C(C)=O)c1O` (stereo not drawn) [Example 12, 5-(N-(2-(4-Acetyl-3-hydroxy-2-propylphenoxy)ethyl)sulfamoyl)-2,3-dihydro-1H-indene-2-carboxylic acid] showed an EC50 [1] of 5 to 100 µM, an EC50 [2] of 5 to 100 µM and an EC50 [3] of 5 to 100 µM.

`CCCCCN(CCNS(=O)(=O)c1cc(C)cc(CC(=O)O)c1)Cc1ccc(OC(F)(F)F)cc1` [Example 4] was tested, and the EC50 [1] was under 5 µM, the EC50 [2] was under 5 µM and the EC50 [3] was under 5 µM.

For `CCN(CCNS(=O)(=O)c1cc(C)cc(CC(=O)O)c1)Cc1ccc(OC(F)(F)F)cc1` [Example 5, (3-{2-[Ethyl-(4-trifluoromethoxy-benzyl}-amino]-ethylsulfamoyl)-5-methyl-phenyl)-acetic acid], the EC50 [1] was 5 to 100 µM, the EC50 [2] was under 5 µM and the EC50 [3] was under 5 µM.

`CCN(CCNS(=O)(=O)c1cccc2c1CC(C(=O)O)C2)Cc1ccc(OC(F)(F)F)cc1` (stereo not drawn) [Example 8] showed an EC50 [1] of under 5 µM, an EC50 [2] of under 5 µM and an EC50 [3] of under 5 µM.

`Cc1ccc(C(=NOCCN(C)S(=O)(=O)c2ccc(C)c(CC(=O)O)c2)c2ccc(C)cc2)cc1` [Example 20] gave an EC50 [1] of under 5 µM, an EC50 [2] of under 5 µM and an EC50 [3] of under 5 µM.

With `CN(CCON=C(c1ccc(OC(F)(F)F)cc1)c1ccc(OC(F)(F)F)cc1)S(=O)(=O)c1cccc2c1CC(C(=O)O)C2` (stereo not drawn) [Example 19, 4-(N-(2-(bis(4-(trifluoromethoxy)phenyl)methyleneaminooxy)ethyl)-N-methylsulfamoyl)-2,3-dihydro-1H-indene-2-carboxylic acid] the EC50 [1] was over 100 µM, the EC50 [2] was under 5 µM and the EC50 [3] was under 5 µM.

`CN(CCON=C(c1ccc(C(F)(F)F)cc1)c1ccc(C(F)(F)F)cc1)S(=O)(=O)c1cccc2c1CC(C(=O)O)C2` (stereo not drawn) [Example 18, 4-(N-(2-(bis(4-(trifluoromethyl)phenyl)methyleneaminooxy)ethyl)-N-methylsulfamoyl)-2,3-dihydro-1H-indene-2-carboxylic acid] was tested, and the EC50 [1] was over 100 µM, the EC50 [2] was under 5 µM and the EC50 [3] was under 5 µM.

With `CCCCN(CCNS(=O)(=O)c1cccc2c1CC(C(=O)O)C2)Cc1ccc(OC(F)(F)F)cc1` (stereo not drawn) [Example 7, 4-{2-[Butyl-(4-trifluoromethoxy-benzyl)-amino]-ethylsulfamoyl}-indan-2-carboxylic acid] the EC50 [1] was under 5 µM, the EC50 [2] was under 5 µM and the EC50 [3] was under 5 µM.

Compound `CCCc1c(OCCNS(=O)(=O)c2cccc3c2CC(C(=O)O)C3)ccc(C(C)=O)c1O` (stereo not drawn) [Example 11, 4-(N-(2-(4-Acetyl-3-hydroxy-2-propylphenoxy)ethyl)sulfamoyl)-2,3-dihydro-1H-indene-2-carboxylic acid] has an EC50 [1] of over 100 µM, an EC50 [2] of under 5 µM and an EC50 [3] of under 5 µM.

`CCCc1c(OCCN(C)S(=O)(=O)c2cccc3c2CC(C(=O)O)C3)ccc2c(C(F)(F)F)noc12` (stereo not drawn) [Example 14, 4-(N-methyl-N-(2-(7-propyl-3-(trifluoromethyl)benzo[d]isoxazol-6-yloxy)ethyl)sulfamoyl)-2,3-dihydro-1H-indene-2-carboxylic acid] gave an EC50 [1] of under 5 µM, an EC50 [2] of under 5 µM and an EC50 [3] of under 5 µM.

`Cc1ccc(C(=NOCCN(C)S(=O)(=O)c2cccc3c2CC(C(=O)O)C3)c2ccc(C)cc2)cc1` (stereo not drawn) [Example 15, 4-(N-(2-(di-p-tolylmethyleneaminooxy)ethyl)-N-methylsulfamoyl)-2,3-dihydro-1H-indene-2-carboxylic acid] gave an EC50 [1] of over 100 µM, an EC50 [2] of over 100 µM and an EC50 [3] of under 5 µM.

Work on `CCCCCN(CCNS(=O)(=O)c1cccc2c1CC(C(=O)O)C2)Cc1ccc(OC(F)(F)F)cc1` (stereo not drawn) [Example 3, 4-{2-[Pentyl-(4-trifluoromethoxy-benzyl)-amino]-ethylsulfamoyl}-indan-2-carboxylic acid] yielded an EC50 [1] of under 5 µM, an EC50 [2] of under 5 µM and an EC50 [3] of under 5 µM.

In the case of `CCCCN(CCNS(=O)(=O)c1cc(C)cc(CC(=O)O)c1)Cc1ccc(OC(F)(F)F)cc1` [Example 6, (3-{2-[Butyl-(4-trifluoromethoxy-benzyl)-amino]-ethylsulfamoyl}-5-methyl-phenyl)-acetic acid], the EC50 [1] is reported as under 5 µM, the EC50 [2] is reported as under 5 µM and the EC50 [3] is reported as under 5 µM.

Compound `Cc1ccc(S(=O)(=O)N(C)CCON=C(c2ccc(C(F)(F)F)cc2)c2ccc(C(F)(F)F)cc2)cc1CC(=O)O` [Example 16] has an EC50 [1] of under 5 µM, an EC50 [2] of under 5 µM and an EC50 [3] of under 5 µM.
